# Patent publication US9018253B2, “Phenylcarbamate compound and muscle relaxant containing the same” (Bio-Pharm Solutions Co., Ltd., priority 2010, dated 2015)
# Marks after values point to notes of the source that are not given here.
# Assays:
# Format in all cases: in vivo
# male mice (ICR) [1] = assay: Wire hang test (muscular force, muscle relaxation); settings: for ED50: Mus musculus, ip, intraperitoneal (10 ul/g, bw), at time of maximum effect, 50% vs vehicle only (100%), read-out: MR test ED50, IV = Wire hang; for IV = Wire hang, effect (%) compared to that of control treated with vehicle only: 100 mg/kg administered, intraperitoneal
# Procedure: (§1) For testing, male mice (ICR) were purchased from ORIENT BIO INC. (Korea), divided into several groups with 6 mice in each group, and were adapted for 4-5 days. The mice having the weight ranging from 19 g to 26 g were employed for the test. The pharmacological effect of the test compounds on muscle relaxation was evaluated by Rotarod test, grip strength test, and muscular force (wire hang) test. All mice were adapted to the test environment at one hour before starting the tests. The pharmacological effects of all the test compounds were evaluated by administration through peritoneal cavity of the mice (10 ul/g, bw).
# This experimentation was conducted using a metal wire of 30 cm in length, which was suspended between two pillars at a height of about 40 cm from the bottom covered with a soft pad. […] Each mouse was made to grip the wire using two forelimbs, and the elapse time before the mouse fell off from the wire to the pad on the bottom was recorded in seconds. Each mouse was given 5 opportunities for this test at an interval of 2 minutes period. The highest 3 records among the test opportunities were selected and the mean value was used as the test result. This experimentation was conducted according to the method described in the reference, ‘Jacqueline N. Crawley (1999) Behavioral phenotyping of transgenic and knockout mice: experimental design and evaluation of general health, sensory functions, motor abilities, and specific behavioral tests. Brain Res. 835: 18-26’.
# (§2) The obtained results are shown as mean±sem. The difference between the groups was statistically analyzed by ANOVA, and then, further examined by Dunnett's test or Bonferroni test. If p is less than 0.05, it was determined that the difference between the groups had statistical significance.
# (§3) The results of muscle relaxation activity of the phenyl carbamate compounds measured in above Experimental Examples 1 to 4 are shown in following Table 3.
# male mice (ICR) [2] = assay: Grip strength test (forelimbs, muscle relaxation); settings: for ED50: Mus musculus, ip, intraperitoneal (10 ul/g, bw), at time of maximum effect, 50% vs vehicle only (100%), read-out: MR test ED50, III = Grip strength
# Procedure: as §1
# A grip strength test using the test animals' forelimbs was performed using an instrument equipped with triangle ring and designed so as to easily grip with the forelimbs of experimental animals, manufactured from Ugo Basile Inc. (Ugo Basile, Model 47106, Italy). The test was conducted before and after administration of the compounds to evaluate the effects thereof. […] The mouse was made to grip the rod with its forelimbs, and its tail was pulled, where the force at which the mouse detached from the rod was recorded. The instrument indicated the force in grams. All of the mice were given 3 opportunities for test, and the 3 highest values among the test opportunities were selected and the mean value was used as the test result. This experimentation was conducted according to the method described in the reference, ‘Nevins et al. (1993) Quantitative grip strength assessment as a means of evaluating muscle relaxation in mice. Psychopharmacol. 110: 92-96’.
# as §2, §3
# male mice (ICR) [3] = assay: Endurance time on a rotarod rotating at accelerated speed (Acc. Rotarod, muscle relaxation); settings: Mus musculus, ip, 5 min, intraperitoneal (10 ul/g, bw), at time of maximum effect, 50% of muscle relaxation activity vs vehicle only (100%), rod accelerated 4 to 40 rpm, max 5 min, read-out: MR test ED50, I = Acc. Rotarod
# Procedure: as §1
# At 24 hours before testing, the mice to be tested were preliminarily trained for 5 minutes on a rod rotating at the rate of 6 revolutions per a minute. The pharmacological effect on muscle relaxation of the test compounds were evaluated by observing the mice on a rod for 5 minutes, where the rod was accelerated from 4 to 40 revolutions per a minute during the test time. The endurance time that each mouse endures on the acceleratedly rotated rod without falling off from the rod was recorded. As test time for evaluation, a maximum of 5 minutes was applied. […] This experimentation was conducted according to the method described in the reference, ‘Monville et al. (2006) Comparison of incremental and accelerating protocol of the rotarod test for the assessment of motor deficits in the 6-OHDA model. J. Neurosci. Meth. 158: 219-223’.
# as §2, §3
# male mice (ICR) [4] = assay: Residence time on a rotarod rotating at a fixed speed (Fixed 15 r.p.m. Rotarod, muscle relaxation); settings: intraperitoneal (10 ul/g, bw), at time of maximum effect, 50% vs vehicle only (100%), 15 rpm, max 10 min
# Procedure: as §1
# All the mice to be tested were preliminarily trained for 5 minutes on a rod rotating at the rate of 15 revolutions per a minute. The mice that could not remain on the rod without falling off therefrom for a minimum of 2 minutes were excluded from this testing. After the training, all the mice were allowed to rest for 45-60 minutes. Before the administration of the test compounds, the mice were subjected to a further training for one minute on the rod rotating under the same condition, where the mice falling off from the rod were excluded from this experimentation. […] In case a mouse stays on the rod until the test is finished, the time was recorded as 10 minutes. As test time for evaluation, a maximum of 10 minutes was applied. This experimentation was conducted according to the method described in the reference, ‘Yasuda et al. (2005) Antipyretic, analgesic and muscle relaxant activities of Pueraria isoflavonoids and their metabolites from Pueraria lobata Ohwi—a traditional Chinese drug. Biol. Pharm. Bull. 28: 1224-1228’.
# as §2, §3
SMILES,"MR test ED50, II = Fixed 15 r.p.m. Rotarod (male mice (ICR) [4])",other results
"C[C@@H](OC(N)=O)[C@@H](O)c1ccccc1Cl [Compound 5, 1-(2-chlorophenyl)-(S)-1-hydroxypropyl-(R)-2-carbamate]","65.5 mg/kg, bw",ED50 (male mice (ICR) [1]): 52.5 mg/kg; ED50 (male mice (ICR) [2]): 95 mg/kg; ED50 (male mice (ICR) [3]): 66.9 mg/kg
"CNC(=O)O[C@H](C)[C@H](O)c1ccccc1Cl [Compound 22, 1-(2-chlorophenyl)-(R)-1-hydroxypropyl-(R)-2-N-methylcarbamate]","25.1 mg/kg, bw",–
"C[C@H](OC(N)=O)[C@H](O)c1ccccc1Cl [Compound 4, 1-(2-chlorophenyl)-(R)-1-hydroxypropyl-(S)-2-carbamate]","65.0 mg/kg, bw",ED50 (male mice (ICR) [1]): 40 mg/kg; ED50 (male mice (ICR) [2]): 124 mg/kg; ED50 (male mice (ICR) [3]): 69.3 mg/kg
"CC(OC(N)=O)C(O)c1ccccc1Cl (racemic) [Compound 3, 1-(2-chlorophenyl)-1-hydroxypropyl-2-carbamate]","47.7 mg/kg, bw",–
"C[C@@H](OC(N)=O)[C@H](O)c1ccccc1Cl [Compound 2, 1-(2-chlorophenyl)-(R)-1-hydroxypropyl-(R)-2-carbamate]","76.5 mg/kg, bw",–
"C[C@@H](OC(N)=O)[C@H](O)c1ccccc1I [Compound 66, 1-(2-iodophenyl)-(R)-1-hydroxypropyl-(R)-2-carbamate]","67.9 mg/kg, bw",–
"CC(C)NC(=O)O[C@@H](C)[C@@H](O)c1ccccc1Cl [Compound 17, 1-(2-chlorophenyl)-(S)-1-hydroxypropyl-(S)-2-N-isopropylcarbamate]","66.4 mg/kg, bw",–
"C[C@H](OC(N)=O)[C@@H](O)c1ccccc1I [Compound 65, 1-(2-iodophenyl)-(S)-1-hydroxypropyl-(S)-2-carbamate]","28.0 mg/kg, bw",–
"CNC(=O)OC(C)C(O)c1ccccc1Cl (racemic) [Compound 29, 1-(2-chlorophenyl)-1-hydroxypropyl-2-N-methylcarbamate]","41.0 mg/kg, bw",–
"C[C@H](OC(=O)NC1CC1)[C@@H](O)c1ccccc1Cl [Compound 18, 1-(2-chlorophenyl)-(S)-1-hydroxypropyl-(S)-2-N-cyclopropylcarbamate]","61.2 mg/kg, bw",–
"CNC(=O)O[C@@H](C)[C@@H](O)c1ccccc1Cl [Compound 15, 1-(2-chlorophenyl)-(S)-1-hydroxypropyl-(S)-2-N-methylcarbamate]","42.8 mg/kg, bw",–
"C[C@@H](OC(=O)NC1CC1)[C@H](O)c1ccccc1Cl [Compound 25, 1-(2-chlorophenyl)-(R)-1-hydroxypropyl-(R)-2-N-cyclopropylcarbamate]","18.3 mg/kg, bw",ED50 (male mice (ICR) [1]): 32.9 mg/kg; ED50 (male mice (ICR) [2]): 46.1 mg/kg; ED50 (male mice (ICR) [3]): 30 mg/kg
"C[C@H](OC(N)=O)[C@@H](O)c1ccccc1F [Compound 63, 1-(2-fluorophenyl)-(S)-1-hydroxypropyl-(S)-2-carbamate]",–,"IV = Wire hang, effect (%) compared to that of control treated with vehicle only (male mice (ICR) [1]): 100 ^a (84.2%)"
"C[C@H](OC(N)=O)[C@@H](O)c1ccccc1Cl [Compound 1, 1-(2-chlorophenyl)-(S)-1-hydroxypropyl-(S)-2-carbamate]","23.3 mg/kg, bw",–
"CC(C)NC(=O)O[C@H](C)[C@H](O)c1ccccc1Cl [Compound 24, 1-(2-chlorophenyl)-(R)-1-hydroxypropyl-(R)-2-N-isopropylcarbamate]","44.3 mg/kg, bw",–
"CCCNC(=O)O[C@@H](C)[C@@H](O)c1ccccc1Cl [Compound 16, 1-(2-chlorophenyl)-(S)-1-hydroxypropyl-(S)-2-N-propylcarbamate]","61.6 mg/kg, bw",–
"C[C@@H](OC(N)=O)[C@H](O)c1ccccc1F [Compound 64, 1-(2-fluorophenyl)-(R)-1-hydroxypropyl-(R)-2-carbamate]",–,"IV = Wire hang, effect (%) compared to that of control treated with vehicle only (male mice (ICR) [1]): 100 ^a (30.8%); III = Grip strength, effect (%) compared to that of control treated with vehicle only (male mice (ICR) [2]; 120 mg/kg administered, intraperitoneal): 120 ^a (35.4%)"
"CC[C@H](OC(N)=O)[C@@H](O)c1ccccc1I [Compound 67, 1-(2-iodophenyl)-(S)-1-hydroxybutyl-(S)-2-carbamate]","30.2 mg/kg, bw",–
